The values below come from ChEMBL document CHEMBL1136113, “Synthesis and inhibitory activity of ubiquinone-acetogenin hybrid inhibitor with bovine mitochondrial complex I” (Bioorg Med Chem Lett, 2003).

Molecules are shown by their SMILES.

The experiment has as its target Mitochondrial complex I; NADH oxidoreductase (Bos taurus, UniProt P25708+P52505). The experiment is described as follows: Inhibition of complex I activity was determined by NADH oxidase assay using bovine heart submitochondrial particles. In kind it is protein-complex assay.

Chain of Mitochondrial complex I; NADH oxidoreductase (P25708 21-464 limits assumed, other chains not shown): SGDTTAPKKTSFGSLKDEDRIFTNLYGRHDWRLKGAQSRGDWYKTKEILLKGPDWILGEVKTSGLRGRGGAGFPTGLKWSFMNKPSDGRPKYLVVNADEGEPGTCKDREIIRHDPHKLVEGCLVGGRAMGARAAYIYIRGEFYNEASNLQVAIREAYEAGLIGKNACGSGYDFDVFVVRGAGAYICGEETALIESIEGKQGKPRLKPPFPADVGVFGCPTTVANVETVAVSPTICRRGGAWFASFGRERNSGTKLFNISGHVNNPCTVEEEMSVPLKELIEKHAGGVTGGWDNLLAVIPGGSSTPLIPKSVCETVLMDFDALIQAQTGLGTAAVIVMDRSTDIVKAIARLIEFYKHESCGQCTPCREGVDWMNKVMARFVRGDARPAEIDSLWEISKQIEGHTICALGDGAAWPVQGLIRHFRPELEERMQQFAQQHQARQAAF

The IC50 is the midpoint of a concentration-inhibition curve. Read a low IC50 as greater potency. Regarding `CCCCCCCCCC[C@@H](O)[C@H]1CC[C@H]([C@H]2CC[C@H]([C@H](O)CCCCCCCCCCCCC3=C[C@H](C)OC3=O)O2)O1` [ISODESAACETYLUVARICIN], inhibition was half-maximal at 0.9 nM (IC50). In other words, the sub-nanomolar range. `CCCCC[C@@H](O)[C@H]1CC[C@H]([C@H]2CC[C@H]([C@H](O)CCCCC)O2)O1` returned a half-inhibitory concentration (IC50) of 4500 nM. As for `CCCCCCCCCC[C@@H](O)[C@@H]1CC[C@@H]([C@@H]2CC[C@@H]([C@H](O)CCCCCCCCCC(O)CC3=CC(C)OC3=O)O2)O1` (stereo not given in full) [BULLATACIN], the figure is 0.9 nM. In the case of `CCCCCCCCCC[C@@H](O)[C@H]1CC[C@H]([C@H]2CC[C@H]([C@H](O)CCCCCCCCCCCCc3c(C)c(OC)c(OC)c(OC)c3OC)O2)O1` it was 280 nM; in that of `CCCCCCCCCC[C@@H](O)[C@H]1CC[C@H]([C@H]2CC[C@H]([C@H](O)CCCCCCCCCCCCC3=C(C)C(=O)C(OC)=C(OC)C3=O)O2)O1`, 1.2 nM.
